Experimental data published in US7208494B2, “5HT2c receptor agonists” (Hoffmann-La Roche Inc., priority 2003, dated 2007).
pEC50, pKi: −log10 of the molar value.

Experiments:
5-HT2C receptor [1] = molecular target: T1, 5-HT2C receptor (Homo sapiens, UniProt P28335); assay: Functional activity, FLIPR calcium assay, h5-HT2C; format: cell-based; set-up: expressed in transfected cells; host or cells: CHO cells; details: for pEC50: CHO cells expressing human 5-HT2C, FLIPR; for h5-HT2C Rel. Eff.: relative to response of 10 μM 5-HT (defined as 100%)
T1 sequence (P28335 33-458): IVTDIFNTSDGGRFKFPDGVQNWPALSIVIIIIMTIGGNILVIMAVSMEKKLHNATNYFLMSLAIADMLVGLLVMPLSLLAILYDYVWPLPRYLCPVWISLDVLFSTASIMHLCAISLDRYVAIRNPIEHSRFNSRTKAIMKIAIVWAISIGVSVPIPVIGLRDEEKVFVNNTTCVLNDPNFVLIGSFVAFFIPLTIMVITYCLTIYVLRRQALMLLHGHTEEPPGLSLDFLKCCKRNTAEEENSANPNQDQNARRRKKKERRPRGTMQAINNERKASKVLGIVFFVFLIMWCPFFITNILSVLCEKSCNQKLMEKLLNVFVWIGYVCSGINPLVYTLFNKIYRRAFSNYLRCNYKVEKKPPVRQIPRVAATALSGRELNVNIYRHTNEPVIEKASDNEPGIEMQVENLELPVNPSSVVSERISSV
Protocol: (§1) The functional activity of compounds of formula (I) was assayed using a Fluorimetric Imaging Plate reader (FLIPR). CHO cells expressing the human 5-HT2C or human 5-HT2A receptors were counted and plated into standard 96 well microtitre plates on the day before testing to give a confluent monolayer. The cells were then dye loaded with the calcium sensitive dye, Fluo-3-AM. Unincorporated dye was removed using an automated cell washer to leave a total volume of 100 μL/well of assay buffer (Hanks balanced salt solution containing 20 mM Hepes and 2.5 mM probenecid). The drug (dissolved in 50 μL of the assay buffer) was added at a rate of 70 μL/sec to each well of the FLIPR 96 well plate during fluorescence measurements. The measurements were taken at 1 sec intervals and the maximum fluorescent signal was measured (approx 10–15 secs after drug addition) and compared with the response produced by 10 μM 5-HT (defined as 100%) to which it was expressed as a percentage response (relative efficacy). Dose response curves were constructed using Graphpad Prism (Graph Software Inc.).

human 5-HT2B receptors = molecular target: T2, human 5-HT2B receptors (Homo sapiens, UniProt P41595); assay: Binding to 5-HT2B receptor, [3H]-5-HT, Method (b); details: human 5-HT2B in CHO cell line, read-out: Ki (2B)
T2 construct: expressed in transfected cells; host or cells: CHO cell line
Protocol: (§2) The binding of compounds of formula (I) to serotonin receptors was determined in vitro by standard methods. The preparations were investigated in accordance with the assays given hereinafter.
Method (b): For the binding to the 5-HT2B receptor the 5-HT2B receptors were radiolabeled with [^3H]-5-HT. The affinity of the compounds for human 5-HT2B receptors in a CHO cell line was determined according to the procedure of K. Schmuck, C. Ullmer, P. Engels and H. Lubbert, FEBS Lett., 1994, 342, 85–90.

5-HT2C receptor [2] = molecular target: T1, 5-HT2C receptor; assay: Binding to 5-HT2C receptor, [3H]-5-HT, Method (a); set-up: expressed in transfected cells; host or cells: CHO cell line; details: CHO cell line, read-out: Ki (2C)
Protocol: as §2
Method (a): For the binding to the 5-HT2C receptor the 5-HT2C receptors were radiolabeled with [^3H]-5-HT. The affinity of the compounds for 5-HT2C receptors in a CHO cell line was determined according to the procedure of D. Hoyer, G. Engel and H. O. Kalkman, European J. Pharmacol., 1985, 118, 13–23.

5-HT2A receptor [3] = molecular target: T3, 5-HT2A receptor (Homo sapiens, UniProt P28223); assay: Binding to 5-HT2A receptor, [125I]-DOI, Method (c); set-up: expressed in transfected cells; host or cells: CHO cell line; details: CHO cell line, read-out: Ki (2A)
Protocol: as §2
Method (c): For the binding to the 5-HT2A receptor the 5-HT2A receptors were radiolabeled with [^125I]-DOI. The affinity of the compounds for 5-HT2A receptors in a CHO cell line was determined according to the procedure of D. J. McKenna and S. J. Peroutka, J. Neurosci., 1989, 9, 3482–90.

5-HT2A receptor [4] = molecular target: T3, 5-HT2A receptor; assay: Functional activity, FLIPR calcium assay, h5-HT2A; format: cell-based; set-up: expressed in transfected cells; host or cells: CHO cells; details: for pEC50: CHO cells expressing human 5-HT2A, FLIPR; for h5-HT2A Rel. Eff.: relative to response of 10 μM 5-HT (defined as 100%)
Protocol: as §1

T3 sequence (P28223 whole entry): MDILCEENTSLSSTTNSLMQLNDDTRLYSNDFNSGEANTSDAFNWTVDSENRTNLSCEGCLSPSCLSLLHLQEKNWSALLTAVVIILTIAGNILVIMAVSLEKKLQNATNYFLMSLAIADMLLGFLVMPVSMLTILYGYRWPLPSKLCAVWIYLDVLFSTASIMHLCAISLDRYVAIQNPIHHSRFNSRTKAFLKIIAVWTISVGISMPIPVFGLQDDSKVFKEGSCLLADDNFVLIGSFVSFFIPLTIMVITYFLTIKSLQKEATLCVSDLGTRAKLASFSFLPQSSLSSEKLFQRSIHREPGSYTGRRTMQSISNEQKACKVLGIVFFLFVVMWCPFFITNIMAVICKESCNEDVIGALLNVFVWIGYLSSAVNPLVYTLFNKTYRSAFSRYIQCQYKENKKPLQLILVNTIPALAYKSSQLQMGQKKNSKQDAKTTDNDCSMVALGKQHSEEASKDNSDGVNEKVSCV
T2 sequence (P41595 whole entry): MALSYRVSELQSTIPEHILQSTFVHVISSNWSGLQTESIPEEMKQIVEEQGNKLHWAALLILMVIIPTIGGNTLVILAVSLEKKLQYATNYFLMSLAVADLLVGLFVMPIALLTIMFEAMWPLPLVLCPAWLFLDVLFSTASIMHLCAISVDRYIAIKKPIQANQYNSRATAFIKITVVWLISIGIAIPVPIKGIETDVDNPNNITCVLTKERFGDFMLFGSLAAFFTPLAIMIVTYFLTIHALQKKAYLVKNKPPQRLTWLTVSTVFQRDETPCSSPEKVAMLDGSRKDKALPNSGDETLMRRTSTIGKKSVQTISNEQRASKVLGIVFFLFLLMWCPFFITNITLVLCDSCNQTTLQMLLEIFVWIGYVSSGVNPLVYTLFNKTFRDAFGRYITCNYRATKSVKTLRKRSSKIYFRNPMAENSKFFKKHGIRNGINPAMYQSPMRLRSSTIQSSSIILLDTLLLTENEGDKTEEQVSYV

Compound	pEC50 (5-HT2C receptor [1])	h5-HT2C Rel. Eff. (5-HT2C receptor [1]) [%]	pKi (human 5-HT2B receptors)	pKi (5-HT2C receptor [2])	pKi (5-HT2A receptor [3])	pEC50 (5-HT2A receptor [4])	h5-HT2A Rel. Eff. (5-HT2A receptor [4]) [%]
C[C@@H]1CNC[C@H]2Cc3cc(Cl)c(C(F)F)nc3N21 [Example 23, (4R,9aR)-7-Chloro-6-difluoromethyl-4-methyl-1,2,3,4,9,9a-hexahydro-2,4a,5-triaza-fluorene]	7.85	97	7.92	8.10	7.60	7.15	56
CO[C@H](C)c1nc2c(cc1Cl)C[C@@H]1CNC[C@@H](C)N21 [Example 46, (4R,9aR)-7-Chloro-6-(1-(R)-methoxy-ethyl)-4-methyl-1,2,3,4,9,9a-hexahydro-2,4a,5-triaza-fluorene]	7.89	100	7.08	8.05	6.71	6.56	50
Cc1c(F)cnc2c1C[C@@H]1CNC[C@@H](C)N21 [Example 80, (4R,9aR)-7-Fluoro-4,8-dimethyl-1,2,3,4,9,9a-hexahydro-2,4a,5-triaza-fluorene]	7.89	98	7.06	8.22	7.07	6.75	56
